In patent US20250295628A1 (priority 2022, published 2025):
Marks after values point to notes of the source that are not given here.

Key:
[1] = tested on: rabbit VX2 liver tumor animal model; assay: Cisplatin plus composition 3-preparation in rabbit VX2 liver tumor model (Example 34); format: in vivo, New Zealand rabbits; conditions: cisplatin 4 mg/kg once a week alone, 4 weeks
Protocol: SPF grade New Zealand rabbits, 4-8 weeks old, 1.8-2.2 kg, with a standard diet and free access to water, were kept in an environment of 12-hour light/dark cycle with a constant temperature of (23±2° C.) and a humidity of (55±15%). The animals were anesthetized, guided by ultrasound, and VX2 hepatoma cells were introduced into the liver by minimally invasive approach, After monitoring New Zealand rabbits for 14 days, and tumor size was monitored with ultrasound; rabbits were randomly divided into 4 groups of 10 animals in each group according to tumor size and body weight, and drug treatment was started on day 15. Rabbits in the control group were intravenously injected with 0.9% sodium chloride injection through the ear vein. […] All New Zealand rabbits were treated for 4 weeks.
Tumor volume was estimated using the formula V=π(a×b^2)/6, where a and b were the longest and shortest diameters of the tumor measured using calipers. The weights of rabbits were monitored every 3-4 days during the experiment, and rabbited were sacrificed at the end of treatment; blood was collected, AST, ALT and CREA were tested, and the results are shown in Table 30. After anesthetizing each rabbit with Sutai 50+ tachypnosis 0.1 ml/kg, carotid artery phlebotomy was used as a termination procedure.

[2] = tested on: thallium poisoning model rats; assay: Therapeutic effect on thallium poisoning in Wistar rats (Example 24); format: in vivo; conditions: EDTA 93.5 mg/kg, 4 weeks
Protocol: After successful molding, rats were divided to 10 rats in the blank group and the remaining 50 rats, and the grouping and administration dose are shown in Table 19. Rats in all groups were administrated once a day for 5 days/week for a total of 4 weeks.
Rats were sacrificed 24 h after administration on the last day; blood, kidney, brain and liver were taken, and thallium contents in these organs were detected by ICP-MS, and the test results are shown in Table 20.

[3] = tested on: lead poisoning model rats; assay: Therapeutic effect on lead poisoning in SD rats (Example 22); format: in vivo; conditions: EDTA 93.5 mg/kg, 4 weeks
Protocol: 30 SD rats with a body weight of 180˜200 g were taken; rats in the blank group freely drank deionized water containing 12.5 μL acetic acid for 3 weeks.
Rats in all groups were administrated once a day for 5 days/week for a total of 4 weeks. Rats in the blank group and model group were administered by intravenous drip with normal saline, and rats in treating groups were administered with normal saline solution of the corresponding drug; the administration volume of all groups was the same, with a dripping rate of 30 drops/min for a time of about 1 h, 1 time/day, 5 days/week; the grouping and administration dose of rats are shown in Table 14.

[4] = tested on: arsenic poisoning model rats; assay: Therapeutic effect on arsenic poisoning in Wistar rats (Example 23); format: in vivo; conditions: EDTA 93.5 mg/kg
Protocol: 60 Wistar rats with a body weight of 180˜200 g were taken; rats in a blank group freely drank deionized water for 3 months; rats in arsenic poisoning groups freely drank an aqueous solution containing 100 mg/L·As2O3 for continuous 3 months, with a water mount of 20 ml per day, equivalent to an oral dose of 10 mg/kg, resulting in arsenic poisoning of drinking water-type in rats.
After successful molding, rats were divided to 10 rats in blank group and the remaining 50 rats. All groups were administrated once a day for 5 days/week for a total of 4 weeks. Rats in the blank group and the model group were administered by intravenous drip with normal saline, and rats in the treating group were administered with a normal saline solution of the corresponding drug; all groups had the same administration volume, a drip rate of 30 drops/min, and an dripping time of about 1 h, 1 time/d, 5 d/week, for a total of four weeks.
Urine was collected on day 1 and day 26, arsenic excretion was measured; blood and kidney of rats were taken 24 hours after the 26th day of administration, and blood arsenic concentrations and renal arsenic concentrations were detected with ICPMS; the results are shown in Table 18.

[5] = tested on: mixed chromium, cobalt, nickel and manganese poisoning model rabbits; assay: Therapeutic effect on mixed poisoning of chromium, cobalt, nickel and manganese in rabbits (Example 26); format: in vivo, New Zealand rabbits; conditions: EDTA 93.5 mg/kg, 3 days of treatment
Protocol: 40 New Zealand rabbits with a weight of 1.5˜2.0 kg were taken, and normal saline was injected intravenously at the ear margin of rabbits of the blank group for 5 days. A mixed solution containing 5 mg/ml CrCl3, 3 mg/ml CoCl2, 1 mg/ml NiCl2 and 2 mg/ml MnCl2 was injected intravenously at the ear margin of rabbits of poisoning groups with a dose of 2 ml/kg for 5 days, and observed for 25 days, thus resulting in mixed poisoning models of chromium, cobalt, nickel and manganese in New Zealand rabbits.
After successful molding, there were 8 rabbits in the blank group and 24 rabbits in mixed poisoning groups. Rabbits in all groups were given once daily for 3 days. Rabbits in the blank group and the model group were administered by intravenous dripping with normal saline, and rabbits in the treating groups were administered with a normal saline solution containing the corresponding drug. The administration volume of all groups was the same, with a dripping rate of 30 drops/min, an administration time of about 2 h, 1 time/day for 3 days; the grouping and administration dose of New Zealand rabbit in different groups were shown in Table 21. 24-hour urine was collected every day for a total of 3 days, and the total amounts of chromium, cobalt, nickel and manganese excreted through urine during the 3 days were calculated, as shown in Table 22.

N.N.[Cl][Pt][Cl] [Cisplatin, cisplatin]
ALT [1]: 86.68 ± 26.88 U/L | AST [1]: 89.20 ± 13.66 U/L | CREA [1]: 470.35 ± 85.57 µmol/L

O=C(O)CN(CCN(CC(=O)O)CC(=O)O)CC(=O)O [EDTA, ethylenediaminetetraacetate]
Thallium in blood [2]: 836.69 ± 168.83 µg/L | Thallium in kidney [2]: 12.54 ± 4.48 µg/g | Thallium in liver [2]: 4.27 ± 2.18 µg/g | Blood concentration of Ca2+ [3]: 89.31 ± 5.28 µg/g | Blood concentration of Cu2+ [3]: 754.21 ± 70.59 µg/g | Blood concentration of Fe3+ [3]: 194.72 ± 19.29 µg/g | Blood concentration of Mg2+ [3]: 43.61 ± 3.32 µg/g | Blood concentration of Zn2+ [3]: 2942.15 ± 176.08*^ΔΔ μg/g | Lead in blood [3]: 1218.69 ± 129.33 µg/L | Lead in kidney [3]: 16.54 ± 4.67 ^ μg/g | Lead in liver [3]: 0.47 ± 0.28 µg/g | Total arsenic in urine on day 1 [4]: 3.27 ± 1.84 µg | Total arsenic in urine on day 26 [4]: 3.18 ± 1.35 µg | Arsenic in blood ([4]; 24 hours after the 26th day): 1362.98 ± 319.58 µg/L | Arsenic in kidney ([4]; 24 hours after the 26th day): 6.08 ± 2.35 µg/g | Chromium in urine, total excreted in 3 days [5]: 178.48 ± 42.69 µg | Cobalt in urine, total excreted in 3 days [5]: 162.28 ± 44.97 ^ μg | Manganese in urine, total excreted in 3 days [5]: 169.52 ± 32.63 ^ μg | Nickel in urine, total excreted in 3 days [5]: 188.28 ± 63.17 ^ μg
